Paper PMC6044923 (ACS Omega, 2017)

Target: amyloid-β (Aβ(1–42)) (Homo sapiens, UniProt P05067)
Assay: SPR aggregation assay
Format: biochemical

Chain of amyloid-β (Aβ(1–42)) (P05067 672-713): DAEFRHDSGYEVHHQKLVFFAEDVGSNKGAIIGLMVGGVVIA

- IC50: 430 nM
Structure (SMILES): C[n+]1ccc(-c2c3nc(c(-c4cc[n+](C)cc4)c4ccc([nH]4)c(-c4cc[n+](C)cc4)c4nc(c(-c5cc[n+](C)cc5)c5ccc2[nH]5)C=C4)C=C3)cc1 [TMPyP, 5,10,15,20-tetrakis(N-methyl-4-pyridyl)porphyrin]
